Data published in patent publication US20260007652A1, “Selective Modulators of AhR-Regulated Transcription and Method for Using Such Modulators to Treat Cancer” (OREGON STATE UNIVERSITY, priority 2022, published 2026).

How the values were obtained:
[1] = tested on: MDA-MB-468 cells; assay: Annexin-V apoptosis assay, MDA-MB-468 cells; assay type: cell-based, human; conditions: 10 μM, alone
Method: FIGS. 72A-72C presents the characterization of combinations on TNBC cell viability and cell death. Quantitation of Annexin-V staining of MDA-MB-468 cells treated with either 10 μM evoxine, 10 μM citropten, 0.25 μM 11-Cl-BBQ, or corresponding combinations for 72 hours (A and B, respectively). Quantifications represent averages of three independent experiments. C) Colony forming assay of MDA-MB-468 AhR-expressing and AhR KO cells treated with 100 nM Evoxine, 500 nM Citropten, […] 11-Cl-BBQ, or combinations of each compound with 11-Cl-BBQ.
Annexin-V staining was performed 48 hours post-treatment by harvesting cells (floating and attached) with trypsin, followed by addition of serum-containing media, and two washes with ice-cold PBS. Cells were stained with Annexin-V-PerCP conjugates (eBioscience, Waltham, MA, USA) for 15 minutes on ice before washing out residual stain and resuspending in 300 μL of binding buffer. 10,000 events were collected per sample. Data was acquired with a CytoFLEX S flow cytometer (Beckman Coulter, Brea, CA), and analyzed using the CytExpert software (Beckman Coulter).

[2] = tested on: cancer cell line; assay: Cell viability of combinations of AhR ligand and synergizer (FIGS. 51, 52); assay type: cell-based; conditions: for cell viability, monotreatments: alone (FIG. 51); for cell viability, mono-applications: alone (FIG. 52)
Method: FIG. 51 provides data from cancer cell line trials using 11-Cl-BBQ alone, Evoxine alone, Citropten alone, and combinations comprising 11-Cl-BBQ and Citropten and 11-Cl-BBQ and Evoxine. […] The decrease in cell viability was more than additive. Specifically, for Evoxine in combination with Analog 523, the reduction in cell viability was: 31% at 1 μM; 41% at 3 μM; and 42% at 10 μM. For Citropten in combination with Analog 523, the reduction in cell viability was: 16% at 1 μM; 34% at 3 μM; and 43% at 10

[3] = tested on: HepG2 cells; assay: Colony forming assay, HepG2 cells; assay type: cell-based, human; conditions: 2.5 μM, alone
Method: FIGS. 75A-75C compare the effects of 11-Cl-BBQ and Evoxine in hepatoma: A) Mouse Hepa-1 cells were treated with 11-Cl-BBQ, Evoxine either alone or in combination for 48 hours before assessing cell viability using Cell-Titer Glo Viability Assay. B) Hepa-1 cells treated with Evoxine, 11-Cl-BBQ either alone or in combination for 48 hours with induction of cell death measured by Annexin-V staining and detection by flow cytometry. C) Colony forming assay of HepG2 human hepatocellular carcinoma cells seeded at 300 cell/well in a 24-well plate before treatment with 11-Cl-BBQ, Evoxine either alone or in combination at the indicated concentrations for two weeks, followed by fixation and staining with methylene blue. Quantitation of colonies is shown on the right.
Cells were seeded at a density of 500 cell/well in triplicate in 6-well plates, and the following day, cells were treated with compounds and allowed to incubate for 2-3 weeks before fixation with 50% ethanol/water solution containing 0.1% methylene blue overnight. Colonies were counted manually, or with OpenCFU colony counting software, Images were acquired on a ChemiDoc imaging instrument.

[4] = tested on: AhR; assay: Xenobiotic response element (XRE) driven reporter in Hepa-1 cells, AhR activation; assay type: cell-based, mouse
Method: FIGS. 69A-69D show representative 11-Cl-BBQ analogs (848 and 849) as non-classical AHR ligands. (A) Stability of AHR protein in the H460 whole cell lysate in the presence or absence of 11-Cl-BBQ (5 μM), PRXS-848 (10 μM), and PRXS-849 (10 μM) at the indicated temperatures; GADPH was used as a loading control. (B) Localization of AHR protein in the H460 treated with 11-Cl-BBQ (100 nM), PRXS-848 (250 nM), PRXS-849 (250 nM), or vehicle control (0.1% DMSO) for two hours; top horizontal panel: AHR protein staining using an AHR-specific antibody conjugated with FITC (green) fluorophore; middle panel: DAPI staining; bottle panel: overlaid images from the top panel and the middle panel in the same column. (C) AHR activation (measured by XRE-luciferase reporter assay in Hepa1 cells) of the parental lead 11-Cl-BBQ and analogs PRXS-848 and PRXS-849 at the indicated concentrations for 16 hours. (D) AHR activation of 11-Cl-BBQ cotreated with a known AHR antagonist CH223191 (1 μM) or 11-Cl-BBQ analogs PRXS-848 and PRXS-849 at the indicated concentrations for 16 hours.
FIG. 76 presents representative AhR compounds (BBQ analogs) of the invention effective for activation of AhR transcription. Activation values greater than 1 at 100 nM were considered a hit with nanomolar affinity to promote AhR activity and synergize with the identified compounds from the synergy screens. Referring to FIG. 76, Fold@ 1 nM refers to activation of AhR transcription at 1 nM; Fold@100 nM refers to activation of AbR transcription at 100 nM; and Fold rel @ 100 refers to relative activation at 100 nM compared to parental compound, 11-Cl-BBQ. The representative AhR ligand compounds presented in FIG. 76 activate AhR transcription and therefore are useful as anti-cancer agents, either alone or in combination with the synergizing compounds (and chemotherapeutic agents) described herein.
was identified as a top hit compound based on its potent (>50% inhibition at 0.1 μM), and selective activity against AhR WT cells versus AhR KO cells (>70% difference between WT and KO cells at 10 μM) (FIG. 11). […] This confirmed Analog 523 activates AhR-mediated transcription and functions as an AhR ligand.

[5] = tested on: p53; assay: Western blot of p53 protein levels in H460 cells; assay type: cell-based, human; conditions: TCDD 30 nM
Method: Whole cell lysate was prepared in RIPA lysis buffer with 1× Laemmli buffer, then denatured by heating at 100° C. for 5 minutes. Denatured proteins were separated in SDS-PAGE gel and transferred onto PVDF membrane. The PVDF membrane was incubated in TBST with 5% nonfat dry milk for one hour at room temperature prior to incubating with primary antibody of interest overnight at 4° C. with gentle rotation. Appropriate horse radish peroxidase conjugated secondary antibody was applied for one hour at room temperature. Signal was developed by applying SuperSignal West Pico chemiluminescence substrate and captured using the ChemiDoc imaging instrument. Primary antibodies used in this study: anti-AHR antibody (BML-SA210-Enzo Biochem, Farmingdale, NY), anti-p27^Kip1 antibody (610242-BD Biosciences), anti-p53 antibody (DO-1 sc-126-Santa Cruz Biotechnology, Dallas, TX), anti-p21 antibody (2947S-Cell Signaling Technology, Danvers, MA), and anti-GAPDH antibody (sc-36502, Santa Cruz).

[6] = tested on: H460 cells; assay: Senescence-associated beta-galactosidase staining, H460 cells; assay type: cell-based, human; conditions: Dox 50 nM, 5 days
Method: H460 cells were seeded at 2×10^5 cells/well in 6-well plate overnight and treated with indicated compounds for 5 days. Media and treatments were refreshed on the […]. Cells were stained for senescence-associated β-galactosidase (SA-βgal) using 5-dodecanoylaminofluorescein di-β-D-galactopyranoside (C12FDG). Briefly, media were aspirated and replaced with fresh media containing 0.1 μM bafilomycin A1 (Calbiochem) and incubated for 1 hour in cell culture incubator. C12FDG (Setare Biotech) was added with a final concentration of 33 μM and incubated for another hour. Fluorescent signal was recorded using CytoFlex S cytometer for 10,000 cells per sample.

Row | Compound | apoptotic response (Annexin-V staining) [1] [%] | cell viability, monotreatments [2] | cell viability, mono-applications [2] | activation of AhR transcription (FIG. 76) [4] | also measured
1 | COc1cc(OC)c2ccc(=O)oc2c1 [Citropten, citropten] | 2.7 | little effect | largely ineffective in reducing cell viability |  | 
2 | COc1c2ccoc2nc2c(OC)c(OC[C@@H](O)C(C)(C)O)ccc12 [Evoxine] | 0.5 | little effect | largely ineffective in reducing cell viability |  | HepG2 colony formation [3]: little effect on colony formation inhibition
3 | COC(=O)c1ccc2c(c1)nc(-c1cccc3ccccc13)n2C(=O)c1ccc(F)c(F)c1 [PRXS-848] |  |  |  | did not activate AhR | 
4 | COC(=O)c1ccc2nc(-c3cccc4ccccc34)n(C(=O)c3ccc(F)c(F)c3)c2c1 [PRXS-849] |  |  |  | did not activate AhR | 
5 | Clc1cc2c(cc1Cl)Oc1cc(Cl)c(Cl)cc1O2 [TCDD, reference compound] |  |  |  |  | expression of p53 protein [5]: not altered
6 | COc1cccc2c1C(=O)c1c(O)c3c(c(O)c1C2=O)C[C@@](O)(C(=O)CO)C[C@@H]3O[C@H]1C[C@H](N)[C@H](O)[C@H](C)O1 [doxorubicin, reference compound] |  |  |  |  | SA-β-gal expression [6]: induced SA-β-gal expression independent of the AhR status
